# Results as given in patent US9174948B2, “Desferrithiocin polyether analogues” (University of Florida Research Foundation, Inc., priority 2007, dated 2015).
# Like-named read-outs stand apart in the source and are kept apart here.
# Assays:
# [1] = tested on: Non-Iron-Overloaded Rodents; conditions: rats, po, 300 μmol/kg, historical data; cited from earlier work
# [2] = tested on: Iron-Overloaded Cebus apella Primates; conditions: Cebus apella, po, 150 μmol/kg, historical data; cited from earlier work
# [3] = earlier preclinical studies; cited from earlier work
# [4] = tested on: Non-Iron-Overloaded Rodents; assay: Chelator-induced iron clearance in non-iron-overloaded, bile duct-cannulated rats; format: in vivo, rat (male Sprague-Dawley); conditions: po, 300 μmol/kg; for ICE of the polyether relative to that of the parent ligand: 1 vs 3, 4 vs 6, 7 vs 9
# Description: Chelator-Induced Iron Clearance in Non-Iron-Overloaded Rodents. […] J. Med. Chem. 2006, 49, 2772-2783]. Recall that iron-clearing efficiency (ICE) is defined as (net iron excretion)/(total iron-binding capacity of the chelator), expressed as a percent. The relative ICE values of compounds 1 and 2 were in keeping with their log Papp values: the more lipophilic, the larger log Papp, the more efficient the chelator. […] However, the ICE trend was in keeping with the biliary ferrokinetics (FIG. 3) and liver concentration of the chelators, for example, 3>1 (FIG. 4).
# Cannulation of Bile Duct in Non-Iron-Overloaded Rats has been described previously. […]. […] The urine sample(s) was taken at 24 h intervals. Sample collection and handling are as previously described [Bergeron, R. J., Streiff, R. R., Creary, E. A., Daniels, R. D., Jr., King, W., Luchetta, G., Wiegand, J., Moerker, T. and Peter, H. H. A Comparative Study of the Iron-Clearing Properties of Desferrithiocin Analogues with Desferrioxamine B in a Cebus Monkey Model. Blood 1993, 81, 2166-2173; Bergeron, R. J., Streiff, R. R., Wiegand, J., Vinson, J. R. T., Luchetta, G., Evans, K. M., Peter, H. and Jenny, H.-B. A Comparative Evaluation of Iron Clearance Models. Ann. N.Y. Acad. Sci. 1990, 612, 378-393].
# (§1) In the iron-clearing experiments, the rats were given a single 300 μmol/kg dose of drugs 1-9 orally (po).
# (§2) J. Med. Chem. 1999, 42, 2432-2440].
# [5] = tested on: Iron-Overloaded Cebus apella Primates; assay: Chelator-induced iron clearance in iron-overloaded Cebus apella primates; format: in vivo; conditions: po, 75 μmol/kg
# Description: Chelator-Induced Iron Clearance in Iron-Overloaded Cebus apella Primates. The iron-clearance data for all three sets of ligands are presented (Table 2). […] J. Med. Chem. 2003, 46, 1470-1477]>1 (16.8±7.2%) [Bergeron, R. J., Wiegand, J., McManis, J. S., McCosar, B. H., Weimar, W. R., Brittenham, G. M. and Smith, R. E. Effects of C-4 Stereochemistry and C-4′ Hydroxylation on the Iron Clearing Efficiency and Toxicity of Desferrithiocin Analogues. J. Med. Chem. 1999, 42, 2432-2440], the increase is not significant. Although (S)-4′-(HO)-DADFT-PE (3) is the least lipophilic chelator in the 1-3 series, it is just as efficient (ICE, 25.4±7.4%) [Bergeron, R. J., Wiegand, J., McManis, J. S., Vinson, J. R. T., Yao, H., Bharti, N. and Rocca, J. R. (S)-4,5-Dihydro-2-(2-hydroxy-4-hydroxyphenyl)-4-methyl-4-thiazolecarboxylic Acid Polyethers: A Solution to Nephrotoxicity.
# The monkeys (3.5-4 kg) were iron overloaded with intravenous iron dextran as specified in earlier publications to provide about 500 mg of iron per kg of body weight [Bergeron, R. J., Streiff, R. R., Wiegand, J., Luchetta, G., Creary, E. A. and Peter, H. H. A Comparison of the Iron-Clearing Properties of 1,2-Dimethyl-3-hydroxypyrid-4-one, 1,2-Diethyl-3-hydroxypyrid-4-one, and Deferoxamine. Blood 1992, 79, 1882-1890]; the serum transferrin iron saturation rose to between 70 and 80%. At least 20 half-lives, 60 d [Wood, J. K., Milner, P. F. and Pathak, U. N. The Metabolism of Iron-dextran Given as a Total-dose Infusion to Iron Deficient Jamaican Subjects. Br. J. Haematol. 1968, 14, 119-129], elapsed before any of the animals were used in experiments evaluating iron-chelating agents.
# Fecal and urine samples were collected at 24-h intervals and processed as described previously [Bergeron, R. J., Streiff, R. R., Creary, E. A., Daniels, R. D., Jr., King, W., Luchetta, G., Wiegand, J., Moerker, T. and Peter, H. H. A Comparative Study of the Iron-Clearing Properties of Desferrithiocin Analogues with Desferrioxamine B in a Cebus Monkey Model. Blood 1993, 81, 2166-2173; Bergeron, R. J., Streiff, R. R., Wiegand, J., Vinson, J. R. T., Luchetta, G., Evans, K. M., Peter, H. and Jenny, H.-B. A Comparative Evaluation of Iron Clearance Models. Ann. N.Y. Acad. Sci. 1990, 612, 378-393; Bergeron, R. J., Wiegand, J. and Brittenham, G. M. HBED: A Potential Alternative to Deferoxamine for Iron-Chelating Therapy. Blood 1998, 91, 1446-1452]. Briefly, the collections began 4 d prior to the administration of the test drug and continued for an additional 5 d after the drug was given. Iron concentrations were determined by flame atomic absorption spectroscopy as presented in other publications [Bergeron, R. J., Streiff, R. R., Wiegand, J., Vinson, J. R. T., Luchetta, G., Evans, K. M., Peter, H. and Jenny, H.-B. A Comparative Evaluation of Iron Clearance Models. Ann. N.Y. Acad. Sci. 1990, 612, 378-393; Bergeron, R. J., Wiegand, J., Wollenweber, M., McManis, J. S., Algee, S. E. and Ratliff-Thompson, K. Synthesis and Biological Evaluation of Naphthyldesferrithiocin Iron Chelators. J. Med. Chem. 1996, 39, 1575-1581].
# as §1, §2
# [6] = Chelator tissue distribution in rodents; format: in vivo, rat (male Sprague-Dawley); conditions: rats, sc, 300 μmol/kg; for concentration at 0.5 h: male, Sprague-Dawley, rat, plasma
# Protocol: Collection of Tissue Distribution Samples from Rodents: Male Sprague-Dawley rats (250-350 g) were given a single sc injection of the monosodium salts of 6 and 9 prepared as described above at a dose of 300 μmol/kg. At times 0.5, 1, 2, and 4 h after dosing (n=3 rats per time point) the animals were euthanized by exposure to CO2 gas. Blood was obtained via cardiac puncture into vacutainers containing sodium citrate. The blood was centrifuged, and the plasma was separated for analysis. The liver, heart, kidneys, and pancreas were then removed from the animals. […] J. Med. Chem. 2006, 49, 2772-2783]. In the current study, tissues from the (S)-3′-(HO)-DADFT-PE (9) and (S)-5′-(HO)-DADFT-PE (6) treated rats were prepared for HPLC analysis by homogenizing them in 0.5 N HClO4 at a ratio of 1:3 (w/v). Then, as a rinse, CH3OH at a ratio of 1:3 (w/v) was added and the mixture was stored at −20° C. for 30 min. This homogenate was centrifuged. The supernatant was diluted with mobile phase A (95% buffer [25 mM KH2PO4, pH 3.0]/5% CH3CN), vortexed, and filtered with a 0.2 μm membrane. Analytical separation was performed on a Discovery RP Amide C16 HPLC system with UV detection at 310 nm as described previously [Bergeron, R. J., Wiegand, J., Weimar, W. R., McManis, J. S., Smith, R. E. and Abboud, K. A. Iron Chelation Promoted by Desazadesferrithiocin Analogues: An Enantioselective Barrier. Chirality 2003, 15, 593-599; Bergeron, R. J., Wiegand, J., Ratliff-Thompson, K. and Weimar, W. R. The Origin of the Differences in (R)- and (S)-Desmethyldesferrithiocin: Iron-Clearing Properties. Ann. N.Y. Acad. Sci. 1998, 850, 202-216]. Mobile phase and chromatographic conditions were as follows: solvent A, 5% CH3CN/95% buffer; solvent B, 60% CH3CN/40% buffer. The concentrations were calculated from the peak area fitted to calibration curves by nonweighted least-squares linear regression with Rainin Dynamax HPLC Method Manager software (Rainin Instrument Co.).
# [7] = Iron clearance performance ratio in primates versus rodents; format: in vivo, Cebus apella / rat; conditions: mean ICE primates / mean ICE rodents
# Description: Iron Clearance Performance Ratio in Primates versus Rodents. The performance ratio (PR), defined as the mean ICEprimates/ICErodents, is noteworthy (Table 3). […] The mean ICE for the primate group can be compared with the mean ICE of the rodent group (Table 3). […] This is not the case with the 5′-polyether (6), whose ICE is virtually identical in the two species. The largest differences in performance ratios generally unfold with the parent ligands 1, 4, and 7.
compound,measurement,setting,value
"COc1ccc(C2=N[C@@](C)(C(=O)O)CS2)c(O)c1 [Compound 2, (S)-4,5-dihydro-2-(2-hydroxy-4-methoxyphenyl)-4-methyl-4-thiazolecarboxylic acid]",Iron-Clearing Efficiency (%),[1],6.6±2.8%
same,Iron-Clearing Efficiency (%),[2],24.4±10.8%
same,toxicity / nephrotoxicity in words,[3],unacceptably toxic
"COCCOCCOCCOc1ccc(O)c(C2=N[C@@](C)(C(=O)O)CS2)c1 [Compound 6, (S)-4,5-dihydro-2-[2-hydroxy-5-(3,6,9-trioxadecyloxy)phenyl]-4-methyl-4-thiazolecarboxylic acid]",Iron-Clearing Efficiency (%),[4],8.0±1.8%
same,ICE of the polyether relative to that of the parent ligand,[4],800%
same,relative percentages of the iron excreted in the bile and urine,[4],98/2
same,Iron-Clearing Efficiency (%),[5],8.1±2.8%
same,relative percentages of the iron excreted in the stool and urine,[5],56/44
same,concentration at 0.5 h,[6]; 0.5 h,324 ± 20 µM
same,decrease of liver concentration from 0.5 h to 1 h,[6],36%
same,kidney concentration,[6]; 0.5 h,643±92 nmol/g wet weight
same,liver concentration,[6]; 0.5 h,483±85 nmol/g wet weight
same,drop in plasma concentration relative to 0.5 h,[6]; 1 h,39%
same,kidney concentration,[6]; 1 h,435±111 nmol/g wet weight
same,drop in plasma concentration relative to 0.5 h,[6]; 2 h,54%
same,kidney concentration,[6]; 2 h,321±20 nmol/g wet weight
same,pancreas concentration,[6]; 2 h,≈ 30 nmol/g wet weight
same,drop in plasma concentration relative to 0.5 h,[6]; 4 h,82%
same,kidney concentration,[6]; 4 h,116±65 nmol/g wet weight
"COCCOCCOCCOc1cccc(C2=N[C@@](C)(C(=O)O)CS2)c1O [Compound 9, (S)-4,5-dihydro-2-[2-hydroxy-3-(3,6,9-trioxadecyloxy)phenyl]-4-methyl-4-thiazolecarboxylic acid]","ICE of 3′-polyether relative to 4′-polyether (3), more effective",[4],~200%
same,ICE of the polyether relative to that of the parent ligand,[4],230%
same,Iron-Clearing Efficiency (%),[4]; 48 h sample collection period,10.6±4.4%
same,relative percentages of the iron excreted in the bile and urine,[4]; 48 h sample collection period,95/5
same,Iron-Clearing Efficiency (%),[5],24.5±7.6%
same,relative percentages of the iron excreted in the stool and urine,[5],72/28
same,concentration at 0.5 h,[6]; 0.5 h,62 ± 24 µM
same,kidney concentration,[6]; 0.5 h,280±26 nmol/g wet weight
same,liver concentration,[6]; 0.5 h,242±38 nmol/g wet weight
same,drop in plasma concentration relative to 0.5 h,[6]; 1 h,26%
same,kidney concentration,[6]; 1 h,259±35 nmol/g wet weight
same,liver concentration,[6]; 1 h,318±46 nmol/g wet weight
same,drop in plasma concentration relative to 0.5 h,[6]; 2 h,61%
same,kidney concentration,[6]; 2 h,145±27 nmol/g wet weight
same,pancreas concentration,[6]; 2 h,16 nmol/g wet weight
same,drop in plasma concentration relative to 0.5 h,[6]; 4 h,79%
same,kidney concentration,[6]; 4 h,90±7 nmol/g wet weight
COCCOCCOCCOc1ccc(O)c(C2=N[C@@](C)(C(=O)O)CS2)c1 [drawing 17],Iron-Clearing Efficiency (%),[5],8.1 ± 2.8%
same,relative percentages of the iron excreted in the stool and urine,[5],56/44
COCCOCCOCCOc1cccc(C2=N[C@@](C)(C(=O)O)CS2)c1O [drawing 20],Iron-Clearing Efficiency (%),[5],24.5 ± 7.6%
same,relative percentages of the iron excreted in the stool and urine,[5],72/28
C[C@]1(C(=O)O)CSC(c2cc(O)ccc2O)=N1 [drawing 24],ICE Primate/ICE Rodent (performance ratio),[7],12.6
COc1ccc(O)c(C2=N[C@@](C)(C(=O)O)CS2)c1 [drawing 25],ICE Primate/ICE Rodent (performance ratio),[7],3.0
COCCOCCOCCOc1ccc(O)c(C2=N[C@@](C)(C(=O)O)CS2)c1 [drawing 26],ICE Primate/ICE Rodent (performance ratio),[7],1.0
C[C@]1(C(=O)O)CSC(c2cccc(O)c2O)=N1 [drawing 27],ICE Primate/ICE Rodent (performance ratio),[7],5.0
COc1cccc(C2=N[C@@](C)(C(=O)O)CS2)c1O [drawing 28],ICE Primate/ICE Rodent (performance ratio),[7],1.8
COCCOCCOCCOc1cccc(C2=N[C@@](C)(C(=O)O)CS2)c1O [drawing 29],ICE Primate/ICE Rodent (performance ratio),[7],2.3
